In patent publication US12139499B2, “Heteroaryl compounds for treating Huntington's disease” (PTC THERAPEUTICS, INC., priority 2018, dated 2024):

System: Endogenous Huntingtin Protein
Assay: Endogenous Huntingtin Protein Assay (ELISA-based MSD electrochemiluminescence)
Format: cell-based
Details: Table 1
Description: Compounds of Formula (I) or Formula (II) were tested using the Meso Scale Discovery (MSD) Assay provided in International Application No. PCT/US2016/066042, filed on Dec. 11, 2016 and claiming priority to U.S. Provisional Application 62/265,652 filed on Dec. 10, 2015, the entire contents of which are incorporated herein by reference.
The Endogenous Huntingtin Protein assay used in Example 1 was developed using the ELISA-based MSD electrochemiluminescence assay platform.
Endogenous Huntingtin Protein Assay
Meso Scale Discovery (MSD) 96-well or 384-well plates were coated overnight at 4° C. with MW1 (expanded polyglutamine) or MAB2166 monoclonal antibody (for capture) at a concentration of 1 μg/mL in PBS (30 μL per well). Plates were then washed three times with 300 μL wash buffer (0.05% Tween-20 in PBS) and blocked (100 μL blocking buffer; 5% BSA in PBS) for 4-5 hours at room temperature with rotational shaking and then washed three times with wash buffer.
Samples (25 μL) were transferred to the antibody-coated MSD plate and incubated overnight at 4° C. After removal of the lysates, the plate was washed three times with wash buffer, and 25 μL of #5656S (Cell signaling; rabbit monoclonal) secondary antibody (diluted to 0.25 μg/mL in 0.05% Tween-20 in blocking buffer) was added to each well and incubated with shaking for 1 Hour at room temperature. Following incubation with the secondary antibody, the wells were rinsed with wash buffer after which 25 μL of goat anti-rabbit SULFO TAG secondary detection antibody (required aspect of the MSD system) (diluted to 0.25 μg/mL in 0.05% Tween-20 in blocking buffer) was added to each well and incubated with shaking for 1 hour at room temperature. After rinsing three times with wash buffer, 150 μL of read buffer T with surfactant (MSD) were added to each empty well, and the plate was imaged on a SI 6000 imager (MSD) according to manufacturers' instructions provided for 96- or 384-well plates.

Work on `Cc1cc(-c2cnc3nc(NC4CCNCC4)sc3c2)cc2cn(C)nc12` [Compound 14, 6-(2,7-dimethyl-2H-indazol-5-yl)-N-(piperidin-4-yl)[1,3]thiazolo[4,5-b]pyridin-2-amine] yielded an IC50 of 1000 to 3000 nM.
Work on `CN(c1nc2cnc(-c3cc(C#N)c4nn(C)cc4c3)cc2s1)C1CC2CCCC(C1)N2C` (stereo not shown) [Compound 272, 2-methyl-5-{2-[methyl(9-methyl-9-azabicyclo[3.3.1]non-3-yl)amino][1,3]thiazolo[4,5-c]pyridin-6-yl}-2H-indazole-7-carbonitrile] yielded an IC50 of 100 to 500 nM.
With `Cc1cc2nc(-c3cc(F)c4nc(N(C)C5CCNCC5)sc4c3)ccn2n1` [Compound 250, 4-fluoro-N-methyl-6-(2-methylpyrazolo[1,5-a]pyrimidin-5-yl)-N-(piperidin-4-yl)-1,3-benzothiazol-2-amine] the IC50 was 100 to 500 nM.
In the case of `Cc1cn2cc(-c3cc4sc(OC5CC(C)(C)NC(C)(C)C5)nc4cn3)cc(C#N)c2n1` [Compound 309, 2-methyl-6-{2-[(2,2,6,6-tetramethylpiperidin-4-yl)oxy][1,3]thiazolo[4,5-c]pyridin-6-yl}imidazo[1,2-a]pyridine-8-carbonitrile], the IC50 is reported as ≤ 100 nM.
With `Cc1cn2nc(-c3cc(F)c4nc(C5=CCNCC5)sc4c3)cc(C)c2n1` [Compound 46, 6-[4-fluoro-2-(1,2,3,6-tetrahydropyridin-4-yl)-1,3-benzothiazol-6-yl]-2,8-dimethylimidazo[1,2-b]pyridazine] the IC50 was ≤ 100 nM.
With `Cc1cn2cc(-c3ncc4nc(N(C)C5CC(C)(C)NC(C)(C)C5)sc4n3)cc(C#N)c2n1` [Compound 170, 2-methyl-6-{2-[methyl(2,2,6,6-tetramethylpiperidin-4-yl)amino][1,3]thiazolo[5,4-d]pyrimidin-5-yl}imidazo[1,2-a]pyridine-8-carbonitrile] the IC50 was ≤ 100 nM.
Molecule `CN(c1nc2nnc(-c3ccc(-n4ccnc4)cc3O)cc2s1)C1CCNCC1` [Compound 327, 5-(1H-imidazol-1-yl)-2-{6-[methyl(piperidin-4-yl)amino][1,3]thiazolo[4,5-c]pyridazin-3-yl}phenol] has an IC50 of 100 to 500 nM.
With `Cn1cc2cc(-c3cc(F)c4nc(OC5CCNCC5)sc4c3)cc(F)c2n1` [Compound 307, 4-fluoro-6-(7-fluoro-2-methyl-2H-indazol-5-yl)-2-[(piperidin-4-yl)oxy]-1,3-benzothiazole] the IC50 was ≤ 100 nM.
With `Cn1cc2cc(-c3cc4sc(C5CCNCC5)nc4cn3)cc(C#N)c2n1` [Compound 74, 2-methyl-5-[2-(piperidin-4-yl)[1,3]thiazolo[4,5-c]pyridin-6-yl]-2H-indazole-7-carbonitrile] the IC50 was ≤ 100 nM.
For `CC1CC(c2nc3ccc(-c4ccc5nn(C)cc5c4)cc3s2)CCN1` (stereo not shown) [Compound 58, 6-(2-methyl-2H-indazol-5-yl)-2-(2-methylpiperidin-4-yl)-1,3-benzothiazole], the IC50 was 500 to 1000 nM.
For `Cn1cc2cc(-c3cc4sc(NC5CC6CCC(C5)N6)nc4cn3)cc(F)c2n1` (stereo not drawn) [Compound 211, N-[(3-exo)-8-azabicyclo[3.2.1]oct-3-yl]-6-(7-fluoro-2-methyl-2H-indazol-5-yl)[1,3]thiazolo[4,5-c]pyridin-2-amine], the IC50 was ≤ 100 nM.
Molecule `Cn1cc2cc(-c3ccc4nc(OC5CC(C)(C)NC(C)(C)C5)sc4c3)ccc2n1` [Compound 64, 6-(2-methyl-2H-indazol-5-yl)-2-[(2,2,6,6-tetramethylpiperidin-4-yl)oxy]-1,3-benzothiazole] has an IC50 of 1000 to 3000 nM.
In the case of `Cc1cn2nc(-c3cnc4nc(N5CCNCC5)sc4n3)ccc2n1` [Compound 182, 6-(2-methylimidazo[1,2-b]pyridazin-6-yl)-2-(piperazin-1-yl)[1,3]thiazolo[4,5-b]pyrazine], the IC50 is reported as 500 to 1000 nM.
Work on `Cc1cn2cc(-c3cnc4nc(N5CCNCC5)sc4n3)cc(F)c2n1` [Compound 174, 6-(8-fluoro-2-methylimidazo[1,2-a]pyridin-6-yl)-2-(piperazin-1-yl)[1,3]thiazolo[4,5-b]pyrazine] yielded an IC50 of 1000 to 3000 nM.
With `Cc1cc(-c2cc3sc(N(C)C4CC(C)(C)NC(C)(C)C4)nc3cn2)cc2cn(C)nc12` [Compound 31, 6-(2,7-dimethyl-2H-indazol-5-yl)-N-methyl-N-(2,2,6,6-tetramethylpiperidin-4-yl)[1,3]thiazolo[4,5-c]pyridin-2-amine] the IC50 was ≤ 100 nM.
In the case of `CN(c1nc2ccc(-c3cc(C#N)c4nn(C)cc4c3)nc2s1)C1CC(C)(C)NC(C)(C)C1` [Compound 148, 2-methyl-5-{2-[methyl(2,2,6,6-tetramethylpiperidin-4-yl)amino][1,3]thiazolo[5,4-b]pyridin-5-yl}-2H-indazole-7-carbonitrile], the IC50 is reported as ≤ 100 nM.
For `Cc1cn2cc(-c3cc4sc(N(C)C5CC(C)(C)NC(C)(C)C5)nc4cn3)cc(C#N)c2n1` [Compound 179, 2-methyl-6-{2-[methyl(2,2,6,6-tetramethylpiperidin-4-yl)amino][1,3]thiazolo[4,5-c]pyridin-6-yl}imidazo[1,2-a]pyridine-8-carbonitrile], the IC50 was ≤ 100 nM.
In the case of `Cn1cc2cc(-c3ccc4nc(C5=CCCNCC5)sc4c3)ccc2n1` [Compound 56, 6-(2-methyl-2H-indazol-5-yl)-2-(2,3,6,7-tetrahydro-1H-azepin-4-yl)-1,3-benzothiazole], the IC50 is reported as 500 to 1000 nM.
With `CN(c1nc2ncc(-c3cc(C#N)c4nn(C)cc4c3)nc2s1)C1CC(C)(C)NC(C)(C)C1` [Compound 140, 2-methyl-5-{2-[methyl(2,2,6,6-tetramethylpiperidin-4-yl)amino][1,3]thiazolo[4,5-b]pyrazin-6-yl)-2H-indazole-7-carbonitrile] the IC50 was ≤ 100 nM.
In the case of `CN1CCC(N(C)c2nc3nnc(-c4ccc(-c5c[nH]nc5F)cc4O)cc3s2)CC1` [Compound 332, 5-(3-fluoro-1H-pyrazol-4-yl)-2-{6-[methyl(1-methylpiperidin-4-yl)amino][1,3]thiazolo[4,5-c]pyridazin-3-yl}phenol], the IC50 is reported as ≤ 100 nM.
`CN(c1nc2nnc(-c3ccc(-c4cn[nH]c4)cc3O)cc2s1)[C@@H]1CCNC[C@H]1F` [Compound 365, 2-(6-{[(3R,4R)-3-fluoropiperidin-4-yl](methyl)amino}[1,3]thiazolo[4,5-c]pyridazin-3-yl)-5-(1H-pyrazol-4-yl)phenol] was tested, and the IC50 was 100 to 500 nM.
For `Cn1cc2cc(-c3cc4sc(NC5CC6CCC(C5)N6)nc4cn3)cc(C#N)c2n1` (stereo not drawn) [Compound 213, 5-{2-[(3-exo)-8-azabicyclo[3.2.1]oct-3-ylamino][1,3]thiazolo[4,5-c]pyridin-6-yl}-2-methyl-2H-indazole-7-carbonitrile], the IC50 was ≤ 100 nM.
For `CNc1cc(-c2cc(F)c3nc(C4CCNCC4)sc3c2)nn2cc(C)nc12` [Compound 167, 6-[4-fluoro-2-(piperidin-4-yl)-1,3-benzothiazol-6-yl]-N,2-dimethylimidazo[1,2-b]pyridazin-8-amine], the IC50 was ≤ 100 nM.
Work on `Cc1cn2cc(-c3cnc4nc(N(C)C5CCNCC5)sc4n3)cc(C)c2n1` [Compound 288, 6-(2,8-dimethylimidazo[1,2-a]pyridin-6-yl)-N-methyl-N-(piperidin-4-yl)[1,3]thiazolo[4,5-b]pyrazin-2-amine] yielded an IC50 of 100 to 500 nM.
With `CN(c1nc2ncc(-c3ccc(-c4cn[nH]c4)cc3O)nc2s1)C1CC(C)(C)NC(C)(C)C1` [Compound 130, 2-{2-[methyl(2,2,6,6-tetramethylpiperidin-4-yl)amino][1,3]thiazolo[4,5-b]pyrazin-6-yl}-5-(1H-pyrazol-4-yl)phenol] the IC50 was ≤ 100 nM.
`CN1C(C)(C)CC(Nc2nc3cnc(-c4cc(C#N)c5nn(C)cc5c4)cc3s2)CC1(C)C` [Compound 268, 2-methyl-5-{2-[(1,2,2,6,6-pentamethylpiperidin-4-yl)amino][1,3]thiazolo[4,5-c]pyridin-6-yl}-2H-indazole-7-carbonitrile] gave an IC50 of 100 to 500 nM.
In the case of `Cc1cn2cc(-c3cc4sc(N(C)[C@@H]5C[C@H]6CC[C@@H](C5)N6C)nc4cn3)cc(C#N)c2n1` [Compound 240, 2-methyl-6-(2-{methyl[(3-exo)-8-methyl-8-azabicyclo[3.2.1]oct-3-yl]amino}[1,3]thiazolo[4,5-c]pyridin-6-yl)imidazo[1,2-a]pyridine-8-carbonitrile], the IC50 is reported as 100 to 500 nM.
With `CN(c1nc2cnc(-c3cc(F)c4nn(C)cc4c3)nc2s1)C1CC(C)(C)NC(C)(C)C1` [Compound 124, 5-(7-fluoro-2-methyl-2H-indazol-5-yl)-N-methyl-N-(2,2,6,6-tetramethylpiperidin-4-yl)[1,3]thiazolo[5,4-d]pyrimidin-2-amine] the IC50 was ≤ 100 nM.
Work on `COc1cc(-c2cc(F)c3nc(C4CCNCC4)sc3c2)ccc1F` [Compound 191, 4-fluoro-6-(4-fluoro-3-methoxyphenyl)-2-(piperidin-4-yl)-1,3-benzothiazole] yielded an IC50 of 1000 to 3000 nM.
`Oc1cc(-c2cn[nH]c2)ccc1-c1cc2sc(NC3CCNCC3)nc2nn1` [Compound 357, 2-{6-[(piperidin-4-yl)amino][1,3]thiazolo[4,5-c]pyridazin-3-yl)-5-(1H-pyrazol-4-yl)phenol] was tested, and the IC50 was 100 to 500 nM.
Molecule `CC1CC(N(C)c2nc3ccc(-c4ccc5nn(C)cc5c4)cc3s2)CCN1` (stereo not shown) [Compound 81, N-methyl-6-(2-methyl-2H-indazol-5-yl)-N-(2-methylpiperidin-4-yl)-1,3-benzothiazol-2-amine] has an IC50 of 100 to 500 nM.
